Measured values taken from the SangsterLogP compilation.
Values belong to the compound of their own block, whether it stands above or below them.

What was measured:
[1] = method code SF-AS, from DOI: 10.1248/bpb1978.7.120, PMID: 6427444
[2] = method code SF, from DOI: 10.1021/jm00294a005, PMID: 5000561
[3] = method code SF-AS, from DOI: 10.1248/cpb.17.2558
[4] = method code SF-HPLC, from DOI: 10.1016/0731-7085(91)80215-u, PMID: 1821151; conditions: pH 7.4
[5] = not given; remark: listed apart in the source
[6] = method code SF-HPLC, from DOI: 10.1016/s0006-2952(00)00420-2, PMID: 10974206
[7] = not given; remark: listed apart in the source
[8] = method code SF-HPLC, from DOI: 10.1002/jps.10112, PMID: 12115830; conditions: pH 7.4
[9] = not given; remark: listed apart in the source
[10] = not given; remark: listed apart in the source
[11] = method code SF-AS, from DOI: 10.1081/jlc-120022394
[12] = method code SF, from DOI: 10.1016/0165-1218(78)90089-7, PMID: 362190
[13] = method code SF, from Huang, Q.; Wang, L.; Han, S.; Wang, G.; Gao, H. (1993). Quantitative relation between molecular structures and the hydrophobic parameters of halogenated arenes. Chemical Journal of Chinese …
[14] = method code SF-AS, from DOI: 10.1016/s0020-1693(00)85781-3

- logP [1]: 2.45
Compound: CCCCCOC(=O)N1C2CN3C4=C(C(=O)C(N)=C(C)C4=O)C(COC(N)=O)C3(OC)C21 (configuration not stated)

- logP [2]: 0.56
Compound: CCCCC1CC(C(=O)NC(CC(C)O)C2OC(SC)C(O)C(O)C2O)N(C)C1 (configuration not stated)

- logD ([3]; pH 2.0): 0.85
Compound: Cc1cccc(S(N)(=O)=O)c1

- logP: 1.63
Compound: CCC1OC(=O)CC(O)C(C)C(OC2OC(C)C(OC3C[C@@](C)(O)C(O)C(C)O3)C(N(C)C)C2O)C(CC=O)CC(C)C(=O)C=CC(C)=CC1COC1OC(C)C(O)C(OC)C1OC (some centres not stated)

- logD [4]: 4.43
Compound: CCCCC(=O)OCC(c1cncn1C)C(CC)C(=O)OCc1ccccc1 (configuration not stated)

- logP [5]: 2.42
Compound: CC(C)(C)c1ccncc1

- logP [6]: 3.8
Compound: CN(C)CCCNc1c2ccccc2nc2cccc([N+](=O)[O-])c12

- logP [1]: 3.56
Compound: CCCCCCCCCOC(=O)N1[C@H]2[C@@H]1CN1C3=C(C(=O)C(N)=C(C)C3=O)[C@@H](COC(N)=O)[C@@]21OC

- logD ([3]; pH 2.0): 0.84
Compound: Cc1ccccc1S(N)(=O)=O

- logP [7]: 2.09
Compound: COc1cccc([N+](=O)[O-])c1

- logP [6]: 0.4
Compound: C[N+](C)([O-])CCCNc1c2ccccc2nc2ccccc12

- logD [8]: 1.39
Compound: CC(O)C(C)SSc1ncc[nH]1 (configuration not stated)

- logD [8]: 3.05
Compound: c1ccc(CSSc2ncc[nH]2)cc1

- logD [4]: 4.57
Compound: CCC(C(=O)OCc1ccccc1)C(COC(=O)c1ccccc1)c1cncn1C (configuration not stated)

- logD ([3]; pH 5.5): -0.9
Compound: Nc1nnc(S(N)(=O)=O)s1

- logP: 2.92
Compound: CC[C@H]1OC(=O)[C@H](C)[C@@H](O[C@H]2C[C@@](C)(OC)[C@@H](O)[C@H](C)O2)[C@H](C)[C@@H](O[C@@H]2O[C@H](C)C[C@H](N(C)C)[C@H]2O)[C@](C)(O)C[C@@H](C)C(N)[C@H](C)[C@H]2OC(=O)O[C@@]21C (some centres not stated)

- logP [1]: 1.54
Compound: COC12C(COC(N)=O)C3=C(C(=O)C(C)=C(N)C3=O)N1CC1C2N1C(=O)Cc1ccccc1 (configuration not stated)

- logP [9]: 3.81
Compound: O=C1c2c(O)cccc2C(C(=O)c2ccccc2)c2cccc(O)c21

- logD [8]: 2.13
Compound: CCSSc1ncc[nH]1

- logP [10]: 5.86
Compound: CCCCCCCCOC(=O)COc1ccc(Cl)cc1Cl

- logP [7]: 2.5
Compound: O=[N+]([O-])c1ccccc1Br

- logP [5]: 1.5
Compound: Brc1cccnc1

- logD ([3]; pH 2.0): 1.91
Compound: NS(=O)(=O)c1ccc(Cl)c([N+](=O)[O-])c1

Compound: O=[N+]([O-])c1ccc(Cl)cc1
- logP [7]: 2.45

- logP [5]: 0.29
Compound: O=Cc1cccnc1

- logP [9]: 2.79
Compound: O=C1c2c(O)cccc2C(C(=O)c2ccc(O)c(O)c2)c2cccc(O)c21

- logP [11]: 2.48
Compound: CCOC(=O)C(=Cc1ccccc1)NC=O

- logP [12]: 0.15
Compound: NC(=O)/C(=C\c1ccc([N+](=O)[O-])o1)c1ccco1

- logP [2]: 1.88
Compound: CCCC(=O)OC1C(C)OC(OC2C(C)OC(OC3C(CC=O)CC(C)C(O)/C=C\C=C\CC(C)OC(=O)CC(OC(C)=O)C3OC)C(O)C2N(C)C)CC1(C)O (configuration not stated)

- logP [9]: 3.68
Compound: O=C1c2c(O)cccc2C(C(=O)c2ccc3c(c2)OCO3)c2cccc(O)c21

- logP [12]: 0.3
Compound: C=CCOCC(O)Cn1ccnc1[N+](=O)[O-] (configuration not stated)

Compound: Brc1ccc(Br)c(Br)c1
- logP [13]: 4.98

- logP [1]: 3.88
Compound: COC12C(COC(N)=O)C3=C(C(=O)C(C)=C(N)C3=O)N1CC1C2N1C(=O)OC1CCC2=CCC3C(CCC4(C)C(C(C)CCCC(C)C)CCC34)C2(C)CC1 (configuration not stated)

- logP [14]: 0.15
Compound: c1ccc2c(c1)COCCOCCOCCOCCOCCOC2

- logD [8]: 2.56
Compound: CC(C)(C)SSc1ncc[nH]1

Compound: ClC(Cl)=C(c1ccc(Cl)cc1)c1ccc(Cl)cc1
- logP [10]: 5.89

- logP [12]: -0.59
Compound: Cc1nc([N+](=O)[O-])cn1CCO

- logD [4]: 3.3
Compound: CCC(=O)OCC(c1cncn1C)C(CC)C(=O)OCc1ccccc1 (configuration not stated)

- logP [6]: 1.4
Compound: C[N+](C)([O-])CCCNc1c2ccccc2nc2cccc([N+](=O)[O-])c12

- logP [6]: 3.6
Compound: CN(C)CCCNc1c2ccccc2nc2ccccc12

- logP [2]: 0.88
Compound: CO[C@@H]1[C@@H](O[C@@H]2O[C@H](C)[C@@H](O[C@H]3C[C@@](C)(O)[C@@H](OC(C)=O)[C@H](C)O3)[C@H](N(C)C)[C@H]2O)[C@@H](CC=O)C[C@@H](C)[C@@H](O)/C=C/C=C/C[C@@H](C)OC(=O)C[C@H]1OC(C)=O

- logD [8]: 2.76
Compound: CCC(C)SSc1ncc[nH]1 (configuration not stated)

- logP: 3.8
Compound: CCC1OC(=O)CC(O)C(C)C(O[C@H]2OC(C)C(O)C(N(C)C)C2O)C(CCN2CC(C)CC(C)C2)CC(C)C(=O)C=CC(C)=CC1COC1OC(C)C(O)C(OC)C1OC (some centres not stated)

- logP [13]: 3.83
Compound: Clc1cccc(Br)c1

- logP [2]: 1.88
Compound: CCCC(=O)O[C@H]1[C@H](C)O[C@@H](O[C@H]2[C@H](N(C)C)[C@@H](O)[C@H](O[C@H]3[C@@H](CC=O)C[C@@H](C)[C@@H](O)/C=C/C=C/C[C@@H](C)OC(=O)C[C@@H](O)[C@@H]3OC)O[C@@H]2C)C[C@@]1(C)O

Compound: Nc1cccnc1
- logP [5]: 0.05

- logP [1]: 1.51
Compound: CCCOC(=O)N1C2CN3C4=C(C(=O)C(N)=C(C)C4=O)C(COC(N)=O)C3(OC)C21 (configuration not stated)

- logP [14]: 0.7
Compound: c1ccc2c(c1)COCCOCCOCCOCCOC2

- logP [5]: 1.49
Compound: Brc1ccncc1

- logP [10]: 4.7
Compound: C1CCCCCC2OC2CCCC1 (configuration not stated)

- logP [11]: 2.51
Compound: CCOC(=O)C(=Cc1cccc(Cl)c1)NC=O

- logP [12]: 0.3
Compound: Cn1cnc([N+](=O)[O-])c1Cl

- logP [13]: 3.83
Compound: Clc1ccccc1Br

- logP: 1.69
Compound: CO[C@H]1C[C@H](O[C@H]2[C@H](C)[C@@H](O[C@@H]3O[C@H](C)C[C@H](N(C)C)[C@H]3O)[C@@H](C)C[C@@]3(CO3)C(=O)[C@H](C)[C@@H](O)[C@@H](C)[C@@H](C)OC(=O)[C@@H]2C)O[C@@H](C)[C@@H]1O

- logP [2]: 0.88
Compound: CO[C@@H]1[C@@H](O[C@@H]2O[C@H](C)[C@@H](O[C@H]3C[C@@](C)(O)[C@@H](OC(C)=O)[C@H](C)O3)[C@H](N(C)C)[C@H]2O)[C@@H](CC=O)C[C@@H](C)[C@@H](O)/C=C\C=C/C[C@@H](C)OC(=O)C[C@H]1O

- logP [11]: 2.08
Compound: CCOC(=O)C(=Cc1ccoc1)NC=O

- logP [11]: 2.41
Compound: CCOC(=O)C(=Cc1ccccc1Cl)NC=O

- logP [10]: 3.16
Compound: FC(F)(Cl)C(F)(Cl)Cl

- logP [6]: 3.1
Compound: CN(C)CCCNc1c2ccccc2[n+]([O-])c2cccc([N+](=O)[O-])c12

- logP: 0.99
Compound: CC[C@H]1OC(=O)C[C@@H](O)[C@H](C)[C@@H](O[C@@H]2O[C@H](C)[C@@H](O)[C@H](N(C)C)[C@H]2O)[C@@H](CC=O)C[C@@H](C)C(=O)/C=C/C(C)=C/[C@@H]1CO

- logP [2]: 1.38
Compound: CCC(=O)O[C@H]1[C@H](C)O[C@@H](O[C@H]2[C@H](N(C)C)[C@@H](O)[C@H](O[C@H]3[C@@H](CC=O)C[C@@H](C)[C@@H](O)/C=C/C=C/C[C@@H](C)OC(=O)C[C@@H](O)[C@@H]3OC)O[C@@H]2C)C[C@@]1(C)O

Compound: ClC1=C(Cl)C(Cl)(Cl)C(Cl)=C1Cl
- logP [10]: 5.04

- logP [11]: 2.91
Compound: CCOC(=O)C(=CC=Cc1ccccc1)NC=O

- logP [14]: -0.28
Compound: O=C(O)c1ccc2c(c1)COCCOCCOCCOCCOCCOC2

- logP [9]: 2.44
Compound: O=C1c2c(O)cccc2C(C(=O)c2cc(O)c(O)c(O)c2)c2cccc(O)c21

- logD ([3]; pH 2.0): 1.73
Compound: NS(=O)(=O)c1ccc([N+](=O)[O-])c(C(F)(F)F)c1

- logP [6]: 2.5
Compound: CN(C)CCCNc1c2ccccc2[n+]([O-])c2ccccc12

- logD [4]: 2.87
Compound: CCC(C(=O)OCc1ccccc1)C(COC(C)=O)c1cncn1C (configuration not stated)

- logP [7]: 2.59
Compound: O=[N+]([O-])c1cccc(Cl)c1

- logD [4]: 5.64
Compound: CCC(C(=O)OCc1ccccc1)C(COC(=O)c1cccc(Cl)c1)c1cncn1C (configuration not stated)

- logP [9]: 4.22
Compound: O=C1c2c(O)cccc2C(C(=O)c2ccc(OCc3ccccc3)cc2)c2cccc(O)c21

- logP [7]: 2.16
Compound: CN(C)c1cccc([N+](=O)[O-])c1

Compound: Brc1cc(Br)cc(Br)c1
- logP [13]: 4.98

- logP: 3.04
Compound: CO[C@@H]1[C@@H](O[C@@H]2O[C@H](C)[C@@H](O[C@H]3C[C@@](C)(O)[C@@H](OC(=O)CC(C)C)[C@H](C)O3)[C@H](N(C)C)[C@H]2O)[C@@H](CC=O)C[C@@H](C)C(=O)/C=C/C2OC2C[C@@H](C)OC(=O)C[C@H]1OC(C)=O (some centres not stated)

- logD [4]: 5.56
Compound: CCCCC(=O)OCC(c1cncn1C)C(CC)C(=O)OCC1CCCCC1 (configuration not stated)

- logP [1]: 2.05
Compound: COC12C(COC(N)=O)C3=C(C(=O)C(C)=C(N)C3=O)N1CC1C2N1C(=O)OCc1ccccc1 (configuration not stated)

- logP [14]: -0.05
Compound: CC(=O)c1ccc2c(c1)COCCOCCOCCOCCOCCOC2

- logP [12]: -1.12
Compound: CCN(CC)CCCNC(=O)C(=O)NN=Cc1ccc([N+](=O)[O-])o1

- logP [11]: 1.66
Compound: CCOC(=O)C(=Cc1ccc2c(c1)OCO2)NC=O

- logP [14]: 1.84
Compound: c1ccc2c(c1)COCCOCCOCCOCCOCc1ccccc1COCCOCCOCCOCCOC2

- logP [13]: 4.98
Compound: Brc1cccc(Br)c1Br

- logP [9]: 3.11
Compound: O=C1c2c(O)cccc2C(C(=O)c2ccc(O)cc2)c2cccc(O)c21
